Results as given in patent US9139532B2, “Pyrazolyl guanidine F1F0-atpase inhibitors and therapeutic uses thereof” (Lycera Corporation, priority 2010, dated 2015).
pEC50, pIC50: −log10 of the molar value. Read-outs that look alike come from different tables or passages of the source.

How the values were obtained:
F1F0-ATPase = molecular target: T1, F1F0-ATPase (Bos taurus, UniProt P13621); assay: Inhibition of F1F0-ATPase activity in synthesizing ATP; assay type: biochemical; settings: inhibition of ATP synthesis by F1F0-ATPase; read-out: ATP Syn IC50
T1 construct: from tissue

Ramos cells = assay: Cytotoxicity in Ramos cells; assay type: cell-based; settings: cytotoxicity in Ramos cells, read-out: Ramos Cell EC50

CC(C)(C)NC(=NC(=O)c1ccc(Cl)c(F)c1)Nc1cc(-c2ccc(F)cc2)n[nH]1 [Compound A-152]
pIC50 (F1F0-ATPase): > 5.00 | pEC50 (Ramos cells; Homo sapiens): > 5.00

Cc1ccc(C(=O)N=C(NCc2ccc(F)cc2Cl)Nc2cc(C(F)(F)F)n[nH]2)cc1F [Compound A-553]
pIC50 (F1F0-ATPase): > 5.00 | pEC50 (Ramos cells; Homo sapiens): > 5.00

CCOCC(C)NC(=NC(=O)c1ccc(F)cc1)Nc1cc(-c2ccc(F)cc2)n[nH]1 (stereo not shown) [Compound A-269]
pIC50 (F1F0-ATPase): > 5.00 | pEC50 (Ramos cells): > 5.00

CC(C)CNC(=NC(=O)c1ccc(N2CCOCC2)nc1)Nc1cc(-c2ccc(F)cc2)n[nH]1 [Compound A-163]
pIC50 (F1F0-ATPase): > 5.00 | pEC50 (Ramos cells; Homo sapiens): > 5.00

CC(C)C(C)N/C(=N/C(=O)c1cccc(C#N)c1)Nc1cc(-c2ccc(Cl)cc2)n[nH]1 (stereo not shown) [Compound A-304]
pIC50 (F1F0-ATPase): > 5.00 | pEC50 (Ramos cells): > 5.00
